Results published in US11231416B2, “Virus-like particle (VLP) based small molecule-protein interaction trap” (VIB VZW, priority 2015, dated 2022).

Assays:
Assay in all cases: Viral trapping in VLPs, MS analysis
Type in all cases: binding
ESYT2 = target: T1, ESYT2 (Homo sapiens, UniProt A0FGR8)
T1 construct: endogenous in cells; host or cells: HEK293T
Description: (§1) For mass spectrometry, 10^7 HEK293T cells were seeded in five flasks (75 cm^2) and transfected the next day with a total of 15 μg DNA per flask using polyethylene imine reagent. The following DNA quantities were used per flask: 7.5 μg of GAG-eDHFR, 5.4 μg of mock vector and 2.1 μg of a 50/50 mix of pMD2.G and pcDNA3-FLAG-VSV-G. The small molecule fusions were added immediately after transfection to the producing cells at a concentration of 1 μM. The same dilution of dimethyl sulfoxide (DMSO) was added in control experiments to control the effect of this chemical on the cells. The cellular supernatant was harvested after 32 hours and was centrifuged for 3 minutes at 450×g to remove cellular debris. The cleared supernatant was then filtered using 0.45 μm filters (Millipore). A total of 100 μl MyOne™ Streptavidin T1 beads (Life Technologies) pre-loaded with 10 μg ANTI-FLAG® BioM2-Biotin antibody (Sigma-Aldrich®) was used to bind the tagged particles. Particles were allowed to bind for 2 hours by end-over-end rotation. The total supernatant was processed in three consecutive binding steps. Bead-particle complexes were washed once with washing buffer (TWB: 20 mM Tris-HCl pH 7.5, 150 mM NaCl) and were then eluted with FLAG peptide (200 μg/ml in TWB) and lysed by addition of SDS to a final concentration of 0.1%. After 5 minutes, SDS was removed using HiPPR Detergent Removal Spin Columns (Pierce, Thermo Scientific) followed by boiling and overnight digestion with 0.5 μg sequence-grade trypsin (Promega). After acidification (0.1% TFA final), the peptides were separated by nano-LC and directly analyzed with a Q Exactive instrument (Thermo Scientific).
(§2) For tamoxifen, four biological repeats were performed where the cells were treated with MTX-PEG6-tamoxifen after transfection. The obtained protein lists after viral trapping and MS analysis were challenged with protein lists coming from the four DMSO controls, the 19 control experiments and the lists obtained for the MTX-PEG6-simvastatin and MTX-PEG6-reversine (see below) for a total of 30 samples.

ATL2 = target: T2, ATL2 (Homo sapiens, UniProt Q8NHH9); conditions: all proteins (incl. low confidence identifications)
T2 construct: endogenous in cells; host or cells: HEK293T
Description: as §1, §2

CGN1 = target: T3, CGN1 (Bos taurus, UniProt P23805); conditions: all proteins (incl. low confidence identifications)
T3 construct: host or cells: VLPs from HEK293T supernatant
Description: as §1, §2

EPHX1 = target: T4, EPHX1 (Homo sapiens, UniProt P07099); conditions: all proteins (incl. low confidence identifications)
T4 construct: endogenous in cells; host or cells: HEK293T
Description: as §1, §2

SREBF2 = target: T5, SREBF2 (Homo sapiens, UniProt Q12772); conditions: all proteins (incl. low confidence identifications)
T5 construct: endogenous in cells; host or cells: HEK293T
Description: as §1, §2

SEMA4G = target: T6, SEMA4G (Homo sapiens, UniProt Q9NTN9); conditions: all proteins (incl. low confidence identifications)
T6 construct: endogenous in cells; host or cells: HEK293T
Description: as §1, §2

WDR36 = target: T7, WDR36 (Homo sapiens, UniProt Q8NI36); conditions: all proteins (incl. low confidence identifications)
T7 construct: endogenous in cells; host or cells: HEK293T
Description: as §1, §2

ZMPSTE24 = target: T8, ZMPSTE24 (Homo sapiens, UniProt O75844); conditions: all proteins (incl. low confidence identifications)
T8 construct: endogenous in cells; host or cells: HEK293T
Description: as §1, §2

ENPP4 = target: T9, ENPP4 (Homo sapiens, UniProt Q9Y6X5); conditions: all proteins (incl. low confidence identifications)
T9 construct: endogenous in cells; host or cells: HEK293T
Description: as §1, §2

GRAMD4 = target: T10, GRAMD4 (Homo sapiens, UniProt Q6IC98); conditions: all proteins (incl. low confidence identifications)
T10 construct: endogenous in cells; host or cells: HEK293T
Description: as §1, §2

ESYT1 = target: T11, ESYT1 (Homo sapiens, UniProt Q9BSJ8)
T11 construct: endogenous in cells; host or cells: HEK293T
Description: as §1, §2

MINK1 = target: T12, MINK1 (Homo sapiens, UniProt Q8N4C8); conditions: all proteins (incl. low confidence identifications)
T12 construct: endogenous in cells; host or cells: HEK293T
Description: as §1, §2

TBL2 = target: T13, TBL2 (Homo sapiens, UniProt Q9Y4P3)
T13 construct: endogenous in cells; host or cells: HEK293T
Description: as §1, §2

LRRC59 = target: T14, LRRC59 (Homo sapiens, UniProt Q96AG4); conditions: all proteins (incl. low confidence identifications)
T14 construct: endogenous in cells; host or cells: HEK293T
Description: as §1, §2

SEC61B = target: T15, SEC61B (Homo sapiens, UniProt P60468); conditions: all proteins (incl. low confidence identifications)
T15 construct: endogenous in cells; host or cells: HEK293T
Description: as §1, §2

REEP6 = target: T16, REEP6 (Homo sapiens, UniProt Q96HR9)
T16 construct: endogenous in cells; host or cells: HEK293T
Description: as §1, §2

UBQLN2 = target: T17, UBQLN2 (Homo sapiens, UniProt Q9UHD9)
T17 construct: endogenous in cells; host or cells: HEK293T
Description: as §1, §2

DCAKD = target: T18, DCAKD (Homo sapiens, UniProt Q8WVC6); conditions: all proteins (incl. low confidence identifications)
T18 construct: endogenous in cells; host or cells: HEK293T
Description: as §1, §2

TMPRSS13 = target: T19, TMPRSS13 (Homo sapiens, UniProt Q9BYE2); conditions: all proteins (incl. low confidence identifications)
T19 construct: endogenous in cells; host or cells: HEK293T
Description: as §1, §2

DNAJB12 = target: T20, DNAJB12 (Homo sapiens, UniProt Q9NXW2); conditions: all proteins (incl. low confidence identifications)
T20 construct: endogenous in cells; host or cells: HEK293T
Description: as §1, §2

HSD17B12 = target: T21, HSD17B12 (Homo sapiens, UniProt Q53GQ0); conditions: all proteins (incl. low confidence identifications)
T21 construct: endogenous in cells; host or cells: HEK293T
Description: as §1, §2

PCSK5 = target: T22, PCSK5 (Homo sapiens, UniProt Q92824); conditions: all proteins (incl. low confidence identifications)
T22 construct: endogenous in cells; host or cells: HEK293T
Description: as §1, §2

SSR3 = target: T23, SSR3 (Homo sapiens, UniProt Q9UNL2); conditions: all proteins (incl. low confidence identifications)
T23 construct: endogenous in cells; host or cells: HEK293T
Description: as §1, §2

TAOK2 = target: T24, TAOK2 (Homo sapiens, UniProt Q9UL54); conditions: all proteins (incl. low confidence identifications)
T24 construct: endogenous in cells; host or cells: HEK293T
Description: as §1, §2

REEP4 = target: T25, REEP4 (Homo sapiens, UniProt Q9H6H4)
T25 construct: endogenous in cells; host or cells: HEK293T
Description: as §1, §2

PRAF2 = target: T26, PRAF2 (Homo sapiens, UniProt O60831); conditions: all proteins (incl. low confidence identifications)
T26 construct: endogenous in cells; host or cells: HEK293T
Description: as §1, §2

ITPRIPL1 = target: T27, ITPRIPL1 (Homo sapiens, UniProt Q6GPH6); conditions: all proteins (incl. low confidence identifications)
T27 construct: endogenous in cells; host or cells: HEK293T
Description: as §1, §2

SEC61G = target: T28, SEC61G (Homo sapiens, UniProt P60059)
T28 construct: endogenous in cells; host or cells: HEK293T
Description: as §1, §2

VAPA = target: T29, VAPA (Homo sapiens, UniProt Q9P0L0)
T29 construct: endogenous in cells; host or cells: HEK293T
Description: as §1, §2

[1] = all proteins (incl. low confidence identifications)
[2] = proteins identified with >1 peptide (high confidence)

T29 sequence (Q9P0L0 whole entry): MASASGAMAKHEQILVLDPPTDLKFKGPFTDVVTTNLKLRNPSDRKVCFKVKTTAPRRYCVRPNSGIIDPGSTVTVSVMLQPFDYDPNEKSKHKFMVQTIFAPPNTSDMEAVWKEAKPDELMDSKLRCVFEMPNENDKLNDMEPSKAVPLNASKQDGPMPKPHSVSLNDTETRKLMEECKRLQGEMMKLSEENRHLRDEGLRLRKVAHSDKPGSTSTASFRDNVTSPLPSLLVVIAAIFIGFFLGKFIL
T1 sequence (A0FGR8 whole entry): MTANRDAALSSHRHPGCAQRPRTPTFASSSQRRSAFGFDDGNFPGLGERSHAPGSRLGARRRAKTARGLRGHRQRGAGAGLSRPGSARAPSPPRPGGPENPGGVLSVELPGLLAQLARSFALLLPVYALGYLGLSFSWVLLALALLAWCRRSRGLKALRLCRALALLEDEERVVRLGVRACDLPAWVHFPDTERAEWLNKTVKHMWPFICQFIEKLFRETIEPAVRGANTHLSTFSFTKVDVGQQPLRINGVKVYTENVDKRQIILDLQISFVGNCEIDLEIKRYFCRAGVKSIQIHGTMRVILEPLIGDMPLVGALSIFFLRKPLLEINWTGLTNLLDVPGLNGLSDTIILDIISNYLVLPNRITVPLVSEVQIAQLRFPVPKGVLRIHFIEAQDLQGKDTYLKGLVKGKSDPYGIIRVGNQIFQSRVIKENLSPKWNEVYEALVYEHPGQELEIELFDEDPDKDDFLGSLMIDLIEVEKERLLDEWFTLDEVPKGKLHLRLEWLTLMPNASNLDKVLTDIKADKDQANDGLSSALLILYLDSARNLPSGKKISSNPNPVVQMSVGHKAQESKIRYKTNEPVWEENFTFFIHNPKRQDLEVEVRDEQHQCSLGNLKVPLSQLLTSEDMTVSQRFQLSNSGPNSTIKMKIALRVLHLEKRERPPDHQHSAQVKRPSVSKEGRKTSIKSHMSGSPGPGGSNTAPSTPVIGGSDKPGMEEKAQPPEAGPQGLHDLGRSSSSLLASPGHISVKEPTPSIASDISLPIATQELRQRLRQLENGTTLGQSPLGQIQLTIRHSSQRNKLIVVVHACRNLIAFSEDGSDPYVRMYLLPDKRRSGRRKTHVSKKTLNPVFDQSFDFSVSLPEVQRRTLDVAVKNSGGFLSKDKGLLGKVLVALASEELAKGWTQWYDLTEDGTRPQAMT
T25 sequence (Q9H6H4 whole entry): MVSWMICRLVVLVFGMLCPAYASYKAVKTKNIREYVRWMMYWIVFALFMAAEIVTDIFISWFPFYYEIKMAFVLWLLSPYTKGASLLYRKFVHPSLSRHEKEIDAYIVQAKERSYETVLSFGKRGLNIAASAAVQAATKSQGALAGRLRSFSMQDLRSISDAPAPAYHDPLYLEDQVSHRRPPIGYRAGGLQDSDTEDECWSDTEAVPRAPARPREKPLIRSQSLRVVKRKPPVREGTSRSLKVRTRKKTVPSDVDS
T28 sequence (P60059 whole entry): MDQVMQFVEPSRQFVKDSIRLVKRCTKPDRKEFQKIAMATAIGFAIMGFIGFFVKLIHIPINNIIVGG
T28 sequence (P61619 whole entry partner): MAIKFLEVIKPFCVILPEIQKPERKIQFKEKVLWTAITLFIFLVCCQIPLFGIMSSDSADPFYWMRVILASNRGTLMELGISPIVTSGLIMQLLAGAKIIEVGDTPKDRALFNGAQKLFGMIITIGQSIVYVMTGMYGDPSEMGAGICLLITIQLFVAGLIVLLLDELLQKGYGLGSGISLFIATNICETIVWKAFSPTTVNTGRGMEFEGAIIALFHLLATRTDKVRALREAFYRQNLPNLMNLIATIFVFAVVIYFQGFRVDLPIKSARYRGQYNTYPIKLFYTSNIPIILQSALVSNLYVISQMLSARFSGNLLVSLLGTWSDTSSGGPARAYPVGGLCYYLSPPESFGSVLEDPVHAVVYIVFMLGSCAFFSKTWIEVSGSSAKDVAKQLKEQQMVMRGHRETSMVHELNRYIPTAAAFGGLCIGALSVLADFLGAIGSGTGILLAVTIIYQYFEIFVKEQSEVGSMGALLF
T28 sequence (P60468 2-96 partner limits assumed): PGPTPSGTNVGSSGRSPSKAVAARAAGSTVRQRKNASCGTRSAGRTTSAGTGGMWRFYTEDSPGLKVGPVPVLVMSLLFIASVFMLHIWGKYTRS
T13 sequence (Q9Y4P3 whole entry): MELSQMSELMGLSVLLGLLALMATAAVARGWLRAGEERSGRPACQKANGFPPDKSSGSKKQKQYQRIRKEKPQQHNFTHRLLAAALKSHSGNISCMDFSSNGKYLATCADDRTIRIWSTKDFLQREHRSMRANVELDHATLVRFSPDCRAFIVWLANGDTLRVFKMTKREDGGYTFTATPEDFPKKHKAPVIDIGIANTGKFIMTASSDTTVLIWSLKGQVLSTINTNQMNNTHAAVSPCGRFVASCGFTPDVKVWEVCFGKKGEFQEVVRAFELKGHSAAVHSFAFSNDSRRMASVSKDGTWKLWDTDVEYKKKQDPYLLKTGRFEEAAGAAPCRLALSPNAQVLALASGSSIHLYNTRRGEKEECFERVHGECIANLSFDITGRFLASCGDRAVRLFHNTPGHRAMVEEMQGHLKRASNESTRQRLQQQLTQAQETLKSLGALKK
T16 sequence (Q96HR9 1-184 isoform Q96HR9-2): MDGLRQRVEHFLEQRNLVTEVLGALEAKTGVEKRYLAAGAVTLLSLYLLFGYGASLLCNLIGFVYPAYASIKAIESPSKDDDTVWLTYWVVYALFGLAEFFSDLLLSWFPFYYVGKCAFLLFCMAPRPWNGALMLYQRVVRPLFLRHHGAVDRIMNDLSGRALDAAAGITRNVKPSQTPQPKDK
T11 sequence (Q9BSJ8 whole entry): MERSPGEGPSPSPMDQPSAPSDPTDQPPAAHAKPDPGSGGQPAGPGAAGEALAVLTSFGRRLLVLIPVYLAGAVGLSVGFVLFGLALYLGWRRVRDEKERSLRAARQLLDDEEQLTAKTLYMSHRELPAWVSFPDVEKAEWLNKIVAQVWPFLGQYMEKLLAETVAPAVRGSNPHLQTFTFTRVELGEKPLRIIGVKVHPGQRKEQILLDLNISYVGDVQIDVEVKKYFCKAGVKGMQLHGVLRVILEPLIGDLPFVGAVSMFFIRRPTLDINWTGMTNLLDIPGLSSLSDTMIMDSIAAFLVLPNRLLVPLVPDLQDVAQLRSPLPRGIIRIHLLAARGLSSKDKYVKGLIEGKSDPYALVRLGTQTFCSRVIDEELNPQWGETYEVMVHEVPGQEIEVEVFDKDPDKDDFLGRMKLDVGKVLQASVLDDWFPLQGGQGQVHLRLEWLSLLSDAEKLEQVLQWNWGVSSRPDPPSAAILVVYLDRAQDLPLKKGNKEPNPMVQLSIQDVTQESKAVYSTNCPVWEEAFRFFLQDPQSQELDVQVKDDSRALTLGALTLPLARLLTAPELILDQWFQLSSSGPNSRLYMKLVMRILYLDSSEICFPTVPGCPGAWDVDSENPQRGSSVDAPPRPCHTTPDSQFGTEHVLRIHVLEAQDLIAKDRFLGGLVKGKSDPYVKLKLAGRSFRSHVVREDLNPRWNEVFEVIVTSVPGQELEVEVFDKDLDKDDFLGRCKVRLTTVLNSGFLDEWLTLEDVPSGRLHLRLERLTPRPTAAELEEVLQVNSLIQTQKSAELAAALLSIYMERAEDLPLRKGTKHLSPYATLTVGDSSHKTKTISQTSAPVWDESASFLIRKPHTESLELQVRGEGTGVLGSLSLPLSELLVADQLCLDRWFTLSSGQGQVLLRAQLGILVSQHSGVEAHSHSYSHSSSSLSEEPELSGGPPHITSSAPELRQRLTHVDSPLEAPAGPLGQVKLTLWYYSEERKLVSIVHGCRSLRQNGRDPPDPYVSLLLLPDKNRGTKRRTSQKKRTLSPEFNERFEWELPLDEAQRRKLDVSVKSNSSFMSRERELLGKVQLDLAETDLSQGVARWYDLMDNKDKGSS
T17 sequence (Q9UHD9 whole entry): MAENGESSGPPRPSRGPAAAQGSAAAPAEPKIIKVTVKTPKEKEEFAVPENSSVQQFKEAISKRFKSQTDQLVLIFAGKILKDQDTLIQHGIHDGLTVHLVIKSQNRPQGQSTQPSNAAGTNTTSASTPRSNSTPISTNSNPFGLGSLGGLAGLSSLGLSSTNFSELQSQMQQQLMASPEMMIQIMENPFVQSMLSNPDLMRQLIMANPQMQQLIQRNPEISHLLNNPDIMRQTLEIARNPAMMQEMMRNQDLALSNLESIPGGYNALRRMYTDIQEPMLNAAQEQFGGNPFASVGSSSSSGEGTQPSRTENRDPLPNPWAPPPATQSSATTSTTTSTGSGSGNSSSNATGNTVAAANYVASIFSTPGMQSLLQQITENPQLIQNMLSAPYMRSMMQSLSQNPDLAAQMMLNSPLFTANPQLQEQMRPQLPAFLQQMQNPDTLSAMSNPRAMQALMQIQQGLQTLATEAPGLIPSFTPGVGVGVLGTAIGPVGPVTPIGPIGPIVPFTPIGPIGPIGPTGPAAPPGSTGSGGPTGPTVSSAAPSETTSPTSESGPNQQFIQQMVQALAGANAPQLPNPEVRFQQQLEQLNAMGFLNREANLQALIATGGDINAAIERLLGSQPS
T20 sequence (Q9NXW2 whole entry): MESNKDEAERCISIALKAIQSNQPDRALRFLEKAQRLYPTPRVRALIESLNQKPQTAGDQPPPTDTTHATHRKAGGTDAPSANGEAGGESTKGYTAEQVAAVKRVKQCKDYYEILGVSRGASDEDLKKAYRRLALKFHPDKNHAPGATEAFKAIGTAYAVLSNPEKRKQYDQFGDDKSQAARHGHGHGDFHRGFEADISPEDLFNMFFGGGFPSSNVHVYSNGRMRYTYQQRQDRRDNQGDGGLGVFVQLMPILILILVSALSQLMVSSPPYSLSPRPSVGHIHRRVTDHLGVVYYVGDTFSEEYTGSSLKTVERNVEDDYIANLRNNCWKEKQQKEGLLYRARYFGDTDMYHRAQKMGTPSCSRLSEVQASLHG

CCC(=C(c1ccccc1)c1ccc(OCCN(C)Cc2cn(CCOCCOCCOCCOCCOCCNC(=O)CCC(NC(=O)c3ccc(N(C)Cc4cnc5nc(N)nc(N)c5n4)cc3)C(=O)O)nn2)cc1)c1ccccc1 (stereo not shown) [MTX-PEG6-tamoxifen]
Recurrence (x/4) (ESYT2; [1]): 1 x/4
Recurrence (x/4) (ESYT2; [2]): 1 x/4
Recurrence (x/4) (ATL2): 1 x/4
Recurrence (x/4) (CGN1): 1 x/4
Recurrence (x/4) (EPHX1): 1 x/4
Recurrence (x/4) (SREBF2): 1 x/4
Recurrence (x/4) (SEMA4G): 1 x/4
Recurrence (x/4) (WDR36): 1 x/4
Recurrence (x/4) (ZMPSTE24): 1 x/4
Recurrence (x/4) (ENPP4): 1 x/4
Recurrence (x/4) (GRAMD4): 1 x/4
Recurrence (x/4) (ESYT1; [1]): 1 x/4
Recurrence (x/4) (ESYT1; [2]): 1 x/4
Recurrence (x/4) (MINK1): 1 x/4
Recurrence (x/4) (TBL2; [1]): 3 x/4
Recurrence (x/4) (TBL2; [2]): 2 x/4
Recurrence (x/4) (LRRC59): 1 x/4
Recurrence (x/4) (SEC61B): 1 x/4
Recurrence (x/4) (REEP6; [1]): 4 x/4
Recurrence (x/4) (REEP6; [2]): 3 x/4
Recurrence (x/4) (UBQLN2; [1]): 1 x/4
Recurrence (x/4) (UBQLN2; [2]): 1 x/4
Recurrence (x/4) (DCAKD): 2 x/4
Recurrence (x/4) (TMPRSS13): 1 x/4
Recurrence (x/4) (DNAJB12): 1 x/4
Recurrence (x/4) (HSD17B12): 1 x/4
Recurrence (x/4) (PCSK5): 1 x/4
Recurrence (x/4) (SSR3): 1 x/4
Recurrence (x/4) (TAOK2): 1 x/4
Recurrence (x/4) (REEP4; [1]): 2 x/4
Recurrence (x/4) (REEP4; [2]): 2 x/4
Recurrence (x/4) (PRAF2): 1 x/4
Recurrence (x/4) (ITPRIPL1): 1 x/4
Recurrence (x/4) (SEC61G; [1]): 2 x/4
Recurrence (x/4) (SEC61G; [2]): 1 x/4
Recurrence (x/4) (VAPA; [1]): 1 x/4
Recurrence (x/4) (VAPA; [2]): 1 x/4
